Measurements published in ChEMBL document CHEMBL5244229, “Thiazole-containing compounds as therapeutic targets for cancer therapy” (Eur J Med Chem, 2020).
Each block holds one compound with its values, some of them ahead of it.

What was measured:
T47D = test: Cytotoxicity against human T47D cells; format: functional, cell-based
[1] = Antiproliferative activity against human A375P cells; format: functional, cell-based
[2] = Anticancer activity against human Colon carcinoma cell; format: functional
Ovarian carcinoma cell = test: Anticancer activity against human Ovarian carcinoma cell; format: functional
[3] = Anticancer activity against human Melanoma tumor cell line; format: functional
Enterobacter cloacae = test: Inhibition of Enterobacter cloacae Metallo-beta-lactamase IMP-1
NCI-H460 [4] = test: Cytotoxicity against human NCI-H460 cells; format: functional, cell-based
A549 [5] = test: Antiproliferative activity against human A549 cells; format: functional, cell-based
HT-29 = test: Cytotoxicity against human HT-29 cells; format: functional, cell-based
MKN-45 = test: Cytotoxicity against human MKN-45 cells; format: functional, cell-based
[6] = Cytotoxicity against human U-87 MG cells; format: functional, cell-based, U-87MG ATCC
SMMC-7721 = test: Cytotoxicity against human SMMC-7721 cells; format: functional, cell-based
MCF7 [7] = test: Cytotoxicity against human MCF7 cells; format: functional, cell-based
MG-63 = test: Cytotoxicity against human MG-63 cells; format: functional, cell-based
HeLa = test: Cytotoxicity against human HeLa cells; format: functional, cell-based
A549 [8] = test: Induction of apoptosis in human A549 cells assessed as early apoptotic cells for 24 hrs by FITC-annexin V/PI based flow cytometry; format: functional
C6 [9] = test: Induction of apoptosis in rat C6 cells assessed as early apoptotic cells for 24 hrs by FITC-annexin V/PI based flow cytometry; format: functional
A549 [10] = test: Induction of apoptosis in human A549 cells assessed as late apoptotic cells for 24 hrs by FITC-annexin V/PI based flow cytometry; format: functional
C6 [11] = test: Induction of apoptosis in rat C6 cells assessed as late apoptotic cells for 24 hrs by FITC-annexin V/PI based flow cytometry; format: functional
C6 [12] = test: Inhibition of Akt in rat C6 cells measured after 30 mins by ELISA analysis; format: cell-based
MCF7 [13] = test: Induction of apoptosis in human MCF7 cells assessed as dead cells at 10 uM measured after 6 hrs by annexin V-FITC/propidium iodide staining based flow cytometry analysis (reference value: 5.14+/-0.44%); format: functional
[14] = molecular target: Nuclear factor NF-kappa-B complex (Homo sapiens) (UniProt Q00653+P19838+Q04206); test: Inhibition of NF-kB (unknown origin); format: protein-complex assay
Chain of Nuclear factor NF-kappa-B complex (Homo sapiens) (P19838 whole entry, looked up): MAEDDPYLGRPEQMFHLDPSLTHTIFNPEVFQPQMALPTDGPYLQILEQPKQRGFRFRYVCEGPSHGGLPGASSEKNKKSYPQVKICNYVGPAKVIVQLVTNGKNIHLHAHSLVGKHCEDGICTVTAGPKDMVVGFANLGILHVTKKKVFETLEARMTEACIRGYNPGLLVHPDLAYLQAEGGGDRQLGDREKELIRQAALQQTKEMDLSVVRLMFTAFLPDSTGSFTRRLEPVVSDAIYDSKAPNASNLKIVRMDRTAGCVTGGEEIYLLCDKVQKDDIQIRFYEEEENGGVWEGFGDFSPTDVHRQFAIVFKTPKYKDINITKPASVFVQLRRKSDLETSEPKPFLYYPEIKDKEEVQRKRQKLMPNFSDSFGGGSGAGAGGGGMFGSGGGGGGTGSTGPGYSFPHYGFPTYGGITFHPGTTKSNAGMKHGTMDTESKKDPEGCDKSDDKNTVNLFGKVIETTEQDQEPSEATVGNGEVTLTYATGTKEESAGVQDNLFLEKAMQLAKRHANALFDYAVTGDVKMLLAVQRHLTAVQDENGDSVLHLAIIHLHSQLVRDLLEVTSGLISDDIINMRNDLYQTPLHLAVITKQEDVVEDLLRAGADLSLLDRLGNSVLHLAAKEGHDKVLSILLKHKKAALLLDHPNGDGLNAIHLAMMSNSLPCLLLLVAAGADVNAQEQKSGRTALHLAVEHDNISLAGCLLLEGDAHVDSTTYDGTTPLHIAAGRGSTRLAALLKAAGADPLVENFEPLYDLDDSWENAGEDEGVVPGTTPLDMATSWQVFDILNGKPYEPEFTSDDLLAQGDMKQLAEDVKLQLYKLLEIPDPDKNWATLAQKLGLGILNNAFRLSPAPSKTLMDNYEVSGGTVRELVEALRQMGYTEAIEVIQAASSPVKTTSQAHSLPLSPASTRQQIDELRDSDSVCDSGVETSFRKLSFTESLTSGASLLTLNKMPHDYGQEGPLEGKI
Chain of Nuclear factor NF-kappa-B complex (Homo sapiens) (Q00653 whole entry, looked up): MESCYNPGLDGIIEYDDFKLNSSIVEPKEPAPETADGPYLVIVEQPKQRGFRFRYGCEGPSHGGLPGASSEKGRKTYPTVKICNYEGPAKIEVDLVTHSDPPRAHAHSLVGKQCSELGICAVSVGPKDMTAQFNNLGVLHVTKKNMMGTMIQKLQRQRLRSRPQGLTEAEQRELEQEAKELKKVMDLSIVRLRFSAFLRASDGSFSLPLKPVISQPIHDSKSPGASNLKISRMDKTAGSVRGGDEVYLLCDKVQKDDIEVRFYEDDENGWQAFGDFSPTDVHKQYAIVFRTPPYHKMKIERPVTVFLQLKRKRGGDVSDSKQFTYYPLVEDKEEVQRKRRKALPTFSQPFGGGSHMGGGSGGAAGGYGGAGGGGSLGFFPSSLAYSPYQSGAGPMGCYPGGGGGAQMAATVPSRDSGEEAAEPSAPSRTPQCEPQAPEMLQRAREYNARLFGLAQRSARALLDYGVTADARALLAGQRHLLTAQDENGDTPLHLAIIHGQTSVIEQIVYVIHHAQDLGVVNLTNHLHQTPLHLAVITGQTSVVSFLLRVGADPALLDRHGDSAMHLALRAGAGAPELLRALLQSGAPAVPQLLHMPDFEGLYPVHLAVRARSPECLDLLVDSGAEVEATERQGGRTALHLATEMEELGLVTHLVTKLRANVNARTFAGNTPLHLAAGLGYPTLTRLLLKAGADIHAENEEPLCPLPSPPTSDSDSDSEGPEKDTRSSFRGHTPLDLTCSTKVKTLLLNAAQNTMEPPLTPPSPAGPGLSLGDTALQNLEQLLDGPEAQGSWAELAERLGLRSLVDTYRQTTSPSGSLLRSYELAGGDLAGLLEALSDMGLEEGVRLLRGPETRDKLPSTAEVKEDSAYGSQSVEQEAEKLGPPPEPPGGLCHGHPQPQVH
Chain of Nuclear factor NF-kappa-B complex (Homo sapiens) (Q04206 whole entry, looked up): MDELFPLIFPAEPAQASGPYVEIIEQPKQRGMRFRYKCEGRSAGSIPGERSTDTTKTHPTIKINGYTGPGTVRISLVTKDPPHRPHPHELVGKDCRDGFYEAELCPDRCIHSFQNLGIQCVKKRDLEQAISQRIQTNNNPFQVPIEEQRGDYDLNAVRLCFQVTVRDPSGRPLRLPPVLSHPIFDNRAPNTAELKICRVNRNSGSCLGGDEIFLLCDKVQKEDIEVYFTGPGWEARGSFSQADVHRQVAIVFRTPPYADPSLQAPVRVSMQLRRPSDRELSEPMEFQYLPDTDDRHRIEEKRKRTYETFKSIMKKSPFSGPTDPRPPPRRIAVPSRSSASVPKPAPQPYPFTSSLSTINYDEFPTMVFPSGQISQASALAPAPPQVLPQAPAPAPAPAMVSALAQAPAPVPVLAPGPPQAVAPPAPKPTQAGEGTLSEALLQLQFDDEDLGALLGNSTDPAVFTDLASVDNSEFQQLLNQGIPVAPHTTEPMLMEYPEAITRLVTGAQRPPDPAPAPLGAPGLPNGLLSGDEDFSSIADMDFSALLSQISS

HepG2 [15] = test: Anticancer activity against human HepG2 cells; format: functional, cell-based
HCT-116 [16] = test: Anticancer activity against human HCT-116 cells; format: functional, cell-based
K562 = test: Anticancer activity against human K562 cells; format: functional, cell-based
HCT-116 [17] = test: Antiproliferative activity against human HCT-116 cells assessed as cell growth inhibition; format: functional
A549 [18] = test: Anticancer activity against human A549 cells assessed as reduction of cell viability at 25 micromol relative to control; format: functional; details: dose 25 µmol
A549 [19] = test: Anticancer activity against human A549 cells assessed as reduction of cell viability at 100 micromol relative to control; format: functional; details: dose 100 µmol
NCI-H460 [20] = test: Antitumor activity against human NCI-H460 cells; format: functional, cell-based
NCI-H460 [21] = test: Potency index, ratio of MKT-077 IC50 to test compound IC50 for antitumor activity against human NCI-H460 cells; format: functional
PC-3 [22] = test: Anticancer activity against human PC-3 cells; format: functional, cell-based
PC-3 [23] = test: Cytotoxicity against human PC-3 cells; format: functional
Ca-Ski = test: Anticancer activity against human Ca-Ski cells assessed as inhibition of cell growth; format: functional, cell-based
SK-NEP-1 = test: Anticancer activity against human SK-NEP-1 cells assessed as inhibition of cell growth; format: functional, cell-based
[24] = Anticancer activity against human PBMC cells; format: functional, cell-based
HepG2 [25] = test: Anticancer activity against human HepG2 cells assessed as inhibition of cell proliferation at 50 uM measured after 24 hrs by MTT assay; format: functional, cell-based; details: HepG2, 24 h
HepG2 [26] = test: Cytotoxicity against human HepG2 cells assessed as inhibition of cell growth incubated for 48 hrs by MTT assay; format: functional, cell-based; details: HepG2, 48 h

SMILES: Cc1ccc(Oc2ccc(-c3csc(N)n3)cc2)cc1
IC50 (T47D): 540 nM

SMILES: O=S1(=O)NCCN1CCNc1nccc(-c2c(-c3ccc(F)cc3)nc3sccn23)n1
IC50 [1]: 1900 nM

SMILES: CC(=O)Nc1nc2ccc(NC(=O)Cc3c[nH]c4ccccc34)cc2s1
IC50 (MCF7 [7]): 48000 nM
IC50 (MG-63): 48000 nM
IC50 (HeLa): 48000 nM

SMILES: N#Cc1ccc(Oc2ccc(/C=N/Nc3nc(-c4ccc(C#N)cc4)cs3)cc2)cc1
Activity (A549 [8]): 2.3%
Activity (C6 [9]): 4.6%
Activity (A549 [10]): 36.5%
Activity (C6 [11]): 28.2%
inhibition (C6 [12]): 71.7%

SMILES: COc1ccc(-c2nn(-c3ccccc3)cc2/C=N/Nc2nc(-c3ccc(Cl)cc3)cs2)cc1
Activity (MCF7 [13]): 25.61%

SMILES: CNc1nc(C)c(-c2nc3ccccc3c(=O)n2-c2ccc(Cl)cc2)s1
IC [14]: 3.3 µM

SMILES: Nc1nc(-c2ccc(Oc3ccc(Cl)cc3)cc2)cs1
IC50 (HepG2 [15]): 4670 nM
IC50 (HCT-116 [16]): 3810 nM
IC50 (T47D): 917 nM
IC50 (K562): 12400 nM
IC50 (SMMC-7721): 1610 nM

SMILES: Clc1nccc2c(-c3csc(-c4c[nH]c5ncc(Br)cc45)n3)c[nH]c12
GI50 (HCT-116 [17]): 2350 nM

SMILES: c1ccc(Nc2nc3ccc4cn[nH]c4c3s2)cc1
% viability reduction (A549 [18]): 72.1%
% viability reduction (A549 [19]): 78.8%

SMILES: CCN1C(=O)/C(=C2\Sc3ccccc3N2C)S/C1=N\[n+]1cccc2ccccc21.[I-]
IC50 (NCI-H460 [20]): 6 nM
Ratio IC50 (NCI-H460 [21]): 216.7

SMILES: CNC(=O)c1cc(Oc2ccc(NC(=O)Nc3ccc(Cl)c(C(F)(F)F)c3)cc2)ccn1 [SORAFENIB]
IC50 (HepG2 [26]): 5200 nM
IC50 [1]: 5600 nM

Further lines, with some results ahead:

GI50 (Ovarian carcinoma cell): 250 nM
SMILES: Cc1nn2c(SCC(=O)Nc3nccs3)nc3ccccc3c2nc1=O
GI50 [2]: 450 nM
GI50 [3]: 480 nM

IC (Enterobacter cloacae): 0.52 µM
SMILES: C[C@@]1(O)[C@@H](COP(=O)(O)OP(=O)(O)OC[C@H]2O[C@@H](c3nc(C(N)=O)cs3)[C@H](O)[C@@H]2O)O[C@@H](n2cnc3c(N)ncnc32)[C@@H]1O

IC50 (A549 [5]): 250 nM
SMILES: CC(=O)C(C(C)=O)=C1SC=C(n2c(CC#N)nc3ccccc32)N1c1ccccc1
IC50 (NCI-H460 [4]): 250 nM
IC50 (HT-29): 250 nM
IC50 (MKN-45): 250 nM
IC50 [6]: 250 nM
IC50 (SMMC-7721): 250 nM

IC50 (A549 [5]): 230 nM
SMILES: CCOC(=O)/C(C(C)=O)=C1/SC=C(n2c(CC#N)nc3ccccc32)N1c1ccccc1
IC50 (NCI-H460 [4]): 230 nM
IC50 (HT-29): 230 nM
IC50 (MKN-45): 230 nM
IC50 [6]: 230 nM
IC50 (SMMC-7721): 230 nM

IC50 (PC-3 [22]): 24200 nM
SMILES: Cc1c(-c2csc(N)n2)sc2sc(-c3csc(N)n3)c(-c3ccccc3)c12
Activity (PC-3 [23]): >30%

IC50 (SK-NEP-1): 9600 nM
SMILES: CO[C@@H]1C[C@H](C[C@@H](C)[C@@H](OC(=O)C2CCCCN2C)C(C)C)CC[C@H]1OCC/N=c1\sc2cc(Cl)ccc2n1C (stereo partly specified)
IC50 (Ca-Ski): 8300 nM

IC50 [24]: > 30000 nM
SMILES: C/C(=N\Nc1nc(-c2ccc(Cl)cc2)cs1)c1ccccn1

IC50 (HepG2 [25]): 46000 nM
SMILES: NS(=O)(=O)c1ccc(N2C(=O)CSC2c2ccc([N+](=O)[O-])cc2)cc1 (stereo unspecified)
